Measured values taken from PMC6437697 (Journal of Medicinal Chemistry, 2019).

Legend:
Assay in all cases: KINOMEscan
Type in all cases: binding
Settings in all cases: read-out: % control activity remaining
PIK3C2G = target: T1, PIK3C2G (Homo sapiens, UniProt O75747)
T1 construct: purchased Eurofins DiscoverX KINOMEscan
T1 sequence (O75747 1-1486): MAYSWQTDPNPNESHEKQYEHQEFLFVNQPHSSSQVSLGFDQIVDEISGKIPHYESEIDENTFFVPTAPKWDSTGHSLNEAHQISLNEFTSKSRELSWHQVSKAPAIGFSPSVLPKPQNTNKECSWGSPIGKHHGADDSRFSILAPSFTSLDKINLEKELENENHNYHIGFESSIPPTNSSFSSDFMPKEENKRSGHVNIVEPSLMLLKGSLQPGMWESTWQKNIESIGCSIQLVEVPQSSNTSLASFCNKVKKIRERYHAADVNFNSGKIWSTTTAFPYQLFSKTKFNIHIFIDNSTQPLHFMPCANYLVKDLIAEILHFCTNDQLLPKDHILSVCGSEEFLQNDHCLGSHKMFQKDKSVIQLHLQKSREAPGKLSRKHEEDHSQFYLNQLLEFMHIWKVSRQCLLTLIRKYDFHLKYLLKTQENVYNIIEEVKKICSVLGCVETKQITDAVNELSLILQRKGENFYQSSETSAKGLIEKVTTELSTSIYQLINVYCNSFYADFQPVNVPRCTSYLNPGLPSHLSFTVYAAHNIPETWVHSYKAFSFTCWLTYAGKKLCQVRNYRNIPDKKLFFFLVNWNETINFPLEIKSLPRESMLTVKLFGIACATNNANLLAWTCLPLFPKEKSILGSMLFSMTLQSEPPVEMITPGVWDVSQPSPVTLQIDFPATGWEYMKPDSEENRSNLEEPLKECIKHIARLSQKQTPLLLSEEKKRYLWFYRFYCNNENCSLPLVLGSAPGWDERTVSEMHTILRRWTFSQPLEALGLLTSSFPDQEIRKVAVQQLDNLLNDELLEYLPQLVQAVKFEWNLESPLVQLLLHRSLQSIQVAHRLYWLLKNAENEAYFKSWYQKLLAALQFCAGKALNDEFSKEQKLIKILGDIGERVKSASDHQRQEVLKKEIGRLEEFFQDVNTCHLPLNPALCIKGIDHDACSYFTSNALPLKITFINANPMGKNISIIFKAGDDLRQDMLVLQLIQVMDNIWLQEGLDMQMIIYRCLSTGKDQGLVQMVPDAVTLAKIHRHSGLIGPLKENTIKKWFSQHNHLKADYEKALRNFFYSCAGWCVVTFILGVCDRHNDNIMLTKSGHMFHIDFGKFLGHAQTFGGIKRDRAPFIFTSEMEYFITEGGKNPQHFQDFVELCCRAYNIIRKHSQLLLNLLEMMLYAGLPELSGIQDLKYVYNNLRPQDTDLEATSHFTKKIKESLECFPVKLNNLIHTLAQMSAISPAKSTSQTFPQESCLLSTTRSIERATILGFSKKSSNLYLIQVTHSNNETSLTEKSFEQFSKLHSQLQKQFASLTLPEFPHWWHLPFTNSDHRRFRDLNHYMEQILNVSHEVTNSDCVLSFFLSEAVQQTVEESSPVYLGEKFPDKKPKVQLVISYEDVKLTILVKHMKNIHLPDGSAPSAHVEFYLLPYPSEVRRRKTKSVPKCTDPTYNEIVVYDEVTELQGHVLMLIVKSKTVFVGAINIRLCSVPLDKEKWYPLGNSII

KIT(A829P) = target: T2, KIT(A829P) (Homo sapiens, UniProt P10721, A829P)
T2 construct: purchased Eurofins DiscoverX KINOMEscan

EGFR(S752-I759del) = target: T3, EGFR(S752-I759del) (Homo sapiens, UniProt P00533, DEL752-759)
T3 construct: purchased Eurofins DiscoverX KINOMEscan

NEK9 = target: T4, NEK9 (Homo sapiens, UniProt Q8TD19)
T4 construct: purchased Eurofins DiscoverX KINOMEscan
T4 sequence (Q8TD19 1-979): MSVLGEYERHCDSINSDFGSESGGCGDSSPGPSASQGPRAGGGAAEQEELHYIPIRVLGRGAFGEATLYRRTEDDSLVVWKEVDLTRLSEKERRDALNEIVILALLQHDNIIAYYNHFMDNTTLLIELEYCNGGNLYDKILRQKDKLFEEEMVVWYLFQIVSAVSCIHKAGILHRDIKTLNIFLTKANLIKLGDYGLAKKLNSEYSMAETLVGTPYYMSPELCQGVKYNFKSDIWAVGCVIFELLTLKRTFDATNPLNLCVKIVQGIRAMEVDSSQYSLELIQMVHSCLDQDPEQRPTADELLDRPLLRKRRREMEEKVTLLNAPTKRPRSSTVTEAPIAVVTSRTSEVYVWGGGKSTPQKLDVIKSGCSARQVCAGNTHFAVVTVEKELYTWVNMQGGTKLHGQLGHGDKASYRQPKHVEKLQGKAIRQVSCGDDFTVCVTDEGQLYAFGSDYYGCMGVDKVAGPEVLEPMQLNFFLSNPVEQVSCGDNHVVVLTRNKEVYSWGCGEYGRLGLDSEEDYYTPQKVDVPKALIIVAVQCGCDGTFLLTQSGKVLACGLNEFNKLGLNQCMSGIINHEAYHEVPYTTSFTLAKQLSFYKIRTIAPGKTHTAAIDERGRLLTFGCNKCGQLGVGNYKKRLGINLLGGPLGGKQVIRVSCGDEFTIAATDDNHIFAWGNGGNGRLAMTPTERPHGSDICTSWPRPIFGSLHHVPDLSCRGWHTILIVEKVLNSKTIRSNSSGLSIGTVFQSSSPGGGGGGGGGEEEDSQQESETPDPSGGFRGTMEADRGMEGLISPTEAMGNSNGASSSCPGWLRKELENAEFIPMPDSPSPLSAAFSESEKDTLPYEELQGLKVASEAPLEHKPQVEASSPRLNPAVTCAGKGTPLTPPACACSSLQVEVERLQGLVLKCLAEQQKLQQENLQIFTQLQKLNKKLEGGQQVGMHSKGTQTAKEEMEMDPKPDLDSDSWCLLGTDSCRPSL

BLK = target: T5, BLK (Homo sapiens, UniProt P51451)
T5 construct: purchased Eurofins DiscoverX KINOMEscan

CDKL3 = target: T6, CDKL3 (Homo sapiens, UniProt Q8IVW4)
T6 construct: purchased Eurofins DiscoverX KINOMEscan

CSNK2A1 = target: T7, CSNK2A1 (Homo sapiens, UniProt P68400)
T7 construct: purchased Eurofins DiscoverX KINOMEscan
T7 sequence (P68400 whole entry): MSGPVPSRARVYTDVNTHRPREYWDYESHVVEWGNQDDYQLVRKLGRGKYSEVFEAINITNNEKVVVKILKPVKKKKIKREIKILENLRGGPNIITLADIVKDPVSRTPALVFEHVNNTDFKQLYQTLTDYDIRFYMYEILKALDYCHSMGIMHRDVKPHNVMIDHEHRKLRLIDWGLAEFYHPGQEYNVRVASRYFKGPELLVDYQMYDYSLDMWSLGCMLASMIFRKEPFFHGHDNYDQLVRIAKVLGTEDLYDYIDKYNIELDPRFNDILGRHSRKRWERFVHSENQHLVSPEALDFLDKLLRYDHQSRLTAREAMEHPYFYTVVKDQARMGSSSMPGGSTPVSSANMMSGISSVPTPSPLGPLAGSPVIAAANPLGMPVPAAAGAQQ

T2 sequence (P10721 26-976 A829P): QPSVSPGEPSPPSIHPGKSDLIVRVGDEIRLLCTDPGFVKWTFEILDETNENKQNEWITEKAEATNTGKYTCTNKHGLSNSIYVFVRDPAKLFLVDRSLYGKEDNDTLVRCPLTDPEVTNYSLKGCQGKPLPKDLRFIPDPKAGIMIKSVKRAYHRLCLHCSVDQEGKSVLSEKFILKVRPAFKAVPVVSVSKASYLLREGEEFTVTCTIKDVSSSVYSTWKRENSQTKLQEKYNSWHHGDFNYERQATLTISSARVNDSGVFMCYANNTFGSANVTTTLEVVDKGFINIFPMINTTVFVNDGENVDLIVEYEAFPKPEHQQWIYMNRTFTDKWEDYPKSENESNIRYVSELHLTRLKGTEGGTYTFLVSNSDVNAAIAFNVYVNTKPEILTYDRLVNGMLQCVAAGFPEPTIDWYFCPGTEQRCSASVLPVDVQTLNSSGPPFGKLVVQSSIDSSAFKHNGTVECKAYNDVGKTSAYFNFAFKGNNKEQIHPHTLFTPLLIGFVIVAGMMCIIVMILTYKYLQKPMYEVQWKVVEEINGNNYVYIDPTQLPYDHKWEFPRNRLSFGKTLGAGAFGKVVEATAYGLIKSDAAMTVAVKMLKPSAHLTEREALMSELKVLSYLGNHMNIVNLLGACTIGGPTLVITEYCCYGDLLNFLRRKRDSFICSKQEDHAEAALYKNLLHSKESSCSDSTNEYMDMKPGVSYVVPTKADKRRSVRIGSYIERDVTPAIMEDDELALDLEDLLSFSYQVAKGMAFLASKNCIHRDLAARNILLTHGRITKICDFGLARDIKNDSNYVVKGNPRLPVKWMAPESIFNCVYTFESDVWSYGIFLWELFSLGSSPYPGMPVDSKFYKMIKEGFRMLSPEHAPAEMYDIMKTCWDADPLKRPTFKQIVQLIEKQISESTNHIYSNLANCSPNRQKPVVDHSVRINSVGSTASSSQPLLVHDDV
T3 sequence (P00533 with tags, fused parts or gaps DEL752-759 limits assumed): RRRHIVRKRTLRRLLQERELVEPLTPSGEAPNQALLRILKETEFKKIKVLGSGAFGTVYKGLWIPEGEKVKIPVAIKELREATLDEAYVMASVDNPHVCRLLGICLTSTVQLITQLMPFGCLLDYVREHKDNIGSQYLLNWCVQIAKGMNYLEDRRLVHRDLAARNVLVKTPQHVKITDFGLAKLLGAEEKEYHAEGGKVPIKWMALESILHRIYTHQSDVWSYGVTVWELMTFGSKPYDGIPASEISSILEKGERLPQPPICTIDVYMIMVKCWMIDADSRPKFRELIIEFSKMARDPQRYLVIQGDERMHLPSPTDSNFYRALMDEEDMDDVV
T5 sequence (P51451 whole entry): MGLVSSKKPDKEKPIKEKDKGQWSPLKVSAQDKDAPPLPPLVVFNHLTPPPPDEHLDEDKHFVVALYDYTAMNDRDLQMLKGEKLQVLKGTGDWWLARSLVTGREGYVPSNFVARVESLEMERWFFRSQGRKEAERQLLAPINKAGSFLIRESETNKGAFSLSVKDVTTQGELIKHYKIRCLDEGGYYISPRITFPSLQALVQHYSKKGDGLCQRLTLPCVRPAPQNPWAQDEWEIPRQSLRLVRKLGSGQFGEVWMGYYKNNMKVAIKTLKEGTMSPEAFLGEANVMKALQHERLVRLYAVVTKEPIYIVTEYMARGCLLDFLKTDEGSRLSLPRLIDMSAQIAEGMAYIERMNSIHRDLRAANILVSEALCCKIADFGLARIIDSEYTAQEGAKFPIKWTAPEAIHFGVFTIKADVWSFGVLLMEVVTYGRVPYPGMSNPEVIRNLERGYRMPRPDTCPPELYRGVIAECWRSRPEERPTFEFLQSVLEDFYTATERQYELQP
T6 sequence (Q8IVW4 whole entry): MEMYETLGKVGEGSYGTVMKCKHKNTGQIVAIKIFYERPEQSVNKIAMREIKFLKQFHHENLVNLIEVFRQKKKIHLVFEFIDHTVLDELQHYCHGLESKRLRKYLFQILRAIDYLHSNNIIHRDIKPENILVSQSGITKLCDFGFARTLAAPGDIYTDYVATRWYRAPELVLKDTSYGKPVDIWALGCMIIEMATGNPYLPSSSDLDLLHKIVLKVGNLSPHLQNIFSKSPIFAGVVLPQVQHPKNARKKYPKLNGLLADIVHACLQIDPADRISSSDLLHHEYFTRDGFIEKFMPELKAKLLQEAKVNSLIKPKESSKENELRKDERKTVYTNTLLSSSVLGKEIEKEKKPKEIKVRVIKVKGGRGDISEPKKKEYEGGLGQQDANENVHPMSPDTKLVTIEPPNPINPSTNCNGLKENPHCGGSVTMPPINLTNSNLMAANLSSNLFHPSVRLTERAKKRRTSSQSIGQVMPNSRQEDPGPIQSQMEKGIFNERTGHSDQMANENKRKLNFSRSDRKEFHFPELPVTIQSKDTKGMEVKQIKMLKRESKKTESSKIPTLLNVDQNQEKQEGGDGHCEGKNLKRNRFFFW

Structure (SMILES)	remaining binding at 1 µM (PIK3C2G)	remaining binding at 1 µM (KIT(A829P))	remaining binding at 1 µM (EGFR(S752-I759del))	remaining binding at 1 µM (NEK9)	remaining binding at 1 µM (BLK)	remaining binding at 1 µM (CDKL3)	remaining binding at 1 µM (CSNK2A1)
Clc1cc(NCC2CC2)c2ncc(-c3ccc4[nH]ncc4c3)n2n1 [compound 2, 6-Chloro-N-(cyclopropylmethyl)-3-(1H-indazol-5-yl)imidazo[1,2-b]pyridazin-8-amine]	91%	75%	94%	100%	53%	100%	85%
O=C(CN1CCOCC1)N[C@H]1CC[C@H](Nc2cc(Cl)nn3c(-c4ccc5[nH]ncc5c4)cnc23)CC1 [compound 26]	80%	45%	95%	91%	95%	88%	75%
CN1CCC(CNc2cc(Cl)nn3c(-c4cc5nc(Nc6ccccc6)[nH]c5cc4F)cnc23)CC1 [compound 31, 6-Chloro-3-(6-fluoro-2-(phenylamino)-1H-benzo[d]imidazol-5-yl)-N-((1-methylpiperidin-4-yl)methyl)imidazo[1,2-b]pyridazin-8-amine]	82%	94%	97%	100%	79%	90%	99%
